Test results from patent US20260124213A1, “STAPHYLOCOCCUS AUREUS PBP4 INHIBITORS AND METHOD OF USE” (UNIVERSITY OF ROCHESTER, priority 2022, published 2026).
Values after ≈ are worked out from the molar mass of the structure shown. Values joined by “and” are separate entries in the source; they are usually repeats but may differ in a detail not shown here. Identical values can stand only once. Like-named read-outs stand apart in the source and are kept apart here.

Key:
[1] = tested on: MRSA strain ATCC BAA-1556; assay: Broth microdilution antibiotic potentiation; format: cell-based, Staphylococcus aureus; details: ATCC BAA-1556; for MIC: Staphylococcus aureus
Experimental: (§1) Broth Microdilution Method for Antibiotic Potentiation with MRSA Strains. Bacteria were cultured for 6 hours in CAMHB and sub-cultured to 5×10^5 CFU/mL in CAMHB. Subcultures were aliquoted (4 mL) into culture tubes and then inoculated with compound from 10 mM or 100 mM stock in DMSO to the desired concentration. […]. Bacteria treated with antibiotic alone served as the control. Samples from the secondary culture tubes were then aliquoted (200 μL) into the first row of wells of a 96-well microtiter plate. Rows 2-11 were filled (100 μL) with the remaining 4 mL of bacterial subculture containing the adjuvant. Row 12 was filled (100 μL) with uninoculated media. From row 1, 100 μL was transferred to row two and mixed 5-8 times before being transferred to row 3. This procedure was used to serial dilute the rest of the rows through 10. The microtiter plate was then covered in Press 'n Seal and incubated at 37° C.

MRSA strain AH-1263 = assay: Broth microdilution antibiotic potentiation; format: cell-based, Staphylococcus aureus; details: AH-1263; for MIC: Staphylococcus aureus, MRSA
Experimental: as §1

MRSA strain AH-2204 = assay: Broth microdilution antibiotic potentiation; format: cell-based, Staphylococcus aureus; details: Staphylococcus aureus, MRSA, AH-2204
Experimental: as §1

CRBΔpbp4 = assay: MIC testing of antibiotics; format: cell-based; details: Staphylococcus aureus, read-out: Minimum inhibitory concentration
Experimental: (§2) Bacterial Strains and Chemicals. The bacterial strains used in these studies include: USA300, USA300Δpbp4, USA300Δpbp4 pPBP4, COL, COLn, COLnex, CRB, and CRBΔpbp4. S. aureus strain USA300 is a predominant cause of U.S. community-associated MRSA infections, whereas strain COL is a commonly studied hospital-associated MRSA strain. The S. aureus USA300 pbp4-null strain (USA300Δpbp4) and PBP4 complementation strain (USA300Δpbp4 pPBP4) have been previously described. […] All strains were grown in Mueller Hinton (MH) broth at 37° C., as indicated.
(§3) Prioritized compounds were tested for their ability to reverse PBP4 mediated antibiotic resistance in another S. aureus background using three isogenic strains that became available during the study (generous gift from Dr. S. Chatterjee; University of Maryland). These strains included: 1) COLnex, which is a methicillin susceptible strain, 2) CRB, a methicillin/ceftobiprole resistant strain of COLnex that overproduces PBP4, and 3) CRBΔpbp4, a methicillin susceptible strain of CRB lacking the pbp4 gene.

COLnex = assay: MIC testing of antibiotics; format: cell-based; details: Staphylococcus aureus, read-out: Minimum inhibitory concentration
Experimental: as §2, §3

CRB = assay: MIC testing of antibiotics; format: cell-based, Staphylococcus aureus; details: Staphylococcus aureus, read-out: Minimum inhibitory concentration, CRB
Experimental: as §2, §3

USA300Δpbp4 = assay: MIC testing of antibiotics; format: cell-based, Staphylococcus aureus; details: for MIC: Staphylococcus aureus, read-out: Minimum inhibitory concentration
Experimental: as §2
(§4) Prior to identifying new PBP4 inhibitors, a screening paradigm to identify existing molecules that reverse the antibiotic resistance profile of wild type cells to that of a pbp4 mutant was developed. To define screening conditions three strains were employed: 1) a wild type USA300 MRSA strain, 2) an isogenic pbp4 deletion strain, and 3) a complemented strain harboring a plasmid wildtype pbp4 copy. The antibiotic susceptibility profile of each strain was measured to determine the magnitude with which PBP4 affects resistance to various antibiotics (Table 1).

S. aureus strain USA300 = assay: microbe, parasite or virus in culture; format: cell-based, Staphylococcus aureus
Experimental: as §2, §4

USA300Δpbp4 pPBP4 = assay: microbe, parasite or virus in culture; format: cell-based; details: Staphylococcus aureus, read-out: Minimum inhibitory concentration
[2] = read-out: Amoxicillin MIC, no compound (—)
[3] = read-out: Cefotaxime MIC, no compound (—)
[4] = read-out: Cephalothin MIC, no compound (—)
[5] = read-out: Imipenem MIC, no compound (—)
[6] = Staphylococcus aureus, USA300, read-out: Minimum inhibitory concentration
[7] = read-out: Piperacillin MIC, no compound (—)

Molecule | MIC (CRBΔpbp4) | MIC (COLnex) | MIC (CRB) | MIC (USA300Δpbp4) | MIC (USA300Δpbp4 pPBP4) | MIC (S. aureus strain USA300; [6]) | other results
CC1(C)S[C@@H]2[C@H](NC(=O)[C@H](N)c3ccc(O)cc3)C(=O)N2[C@H]1C(=O)O [Amoxicillin, amoxicillin] |  |  |  |  |  |  | MIC [1, 2]: 8 µg/mL; Amoxicillin MIC, no compound (—) (MRSA strain AH-1263): 8 µg/mL; MIC (MRSA strain AH-1263; [2]): 4 µg/mL; MIC (MRSA strain AH-2204; [2]): 2 µg/mL
O=C(O)c1cn(C2CC2)c2cc(N3CCNCC3)c(F)cc2c1=O [CIP, ciprofloxacin] | 0.25 µg/mL (≈ 0.754 µM) | 0.25 µg/mL (≈ 0.754 µM) | 0.5 µg/mL (≈ 1.51 µM) | 1 µg/mL (≈ 3.02 µM) |  |  | Minimum inhibitory concentration (USA300Δpbp4; USA300Δpbp4): 1 µg/mL (≈ 3.02 µM); MIC (S. aureus strain USA300; Staphylococcus aureus, USA300; read-out: Minimum inhibitory concentration): 4 µg/mL (≈ 12.1 µM); Minimum inhibitory concentration (S. aureus strain USA300; USA300): 4 µg/mL (≈ 12.1 µM)
CO/N=C(\C(=O)N[C@@H]1C(=O)N2C(C(=O)O)=C(COC(C)=O)CS[C@H]12)c1csc(N)n1 [Cefotaxime, cefotaxime] |  |  |  |  |  |  | Cefotaxime MIC, no compound (—) [1]: 32 µg/mL; MIC [1, 3]: 16 µg/mL; Cefotaxime MIC, no compound (—) (MRSA strain AH-1263): 32 µg/mL; MIC (MRSA strain AH-1263; [3]): 16 µg/mL
CC(=O)OCC1=C(C(=O)O)N2C(=O)[C@@H](NC(=O)Cc3cccs3)[C@H]2SC1 [Cephalothin, cephalothin] |  |  |  |  |  |  | Cephalothin MIC, no compound (—) [1]: 16 µg/mL; MIC [1, 4]: 32 µg/mL; Cephalothin MIC, no compound (—) (MRSA strain AH-1263): 32 µg/mL; MIC (MRSA strain AH-1263; [4]): 16 µg/mL
C[C@@H](O)[C@H]1C(=O)N2C(C(=O)O)=C(SCCN=CN)C[C@H]12 [Imipenem, imipenem] |  |  |  |  |  |  | MIC [1, 5]: 32 µg/mL; MIC (MRSA strain AH-1263; [5]): 16 µg/mL; MIC (MRSA strain AH-2204; [5]): 32 µg/mL
C[C@H]1COc2c(N3CCN(C)CC3)c(F)cc3c(=O)c(C(=O)O)cn1c23 [LEV, levofloxacin] | 0.25 µg/mL (≈ 0.692 µM) | 0.25 µg/mL (≈ 0.692 µM) | 0.5 µg/mL (≈ 1.38 µM) | 0.5 µg/mL (≈ 1.38 µM) | 1 µg/mL (≈ 2.77 µM) | 1 µg/mL (≈ 2.77 µM) | 
C[C@@H](O)[C@H]1C(=O)N2C(C(=O)O)=C(S[C@@H]3CN[C@H](C(=O)N(C)C)C3)[C@H](C)[C@H]12 [MER, meropenem] | 1 µg/mL (≈ 2.61 µM) | 1 µg/mL (≈ 2.61 µM) | 64 µg/mL (≈ 167 µM) | 2 µg/mL (≈ 5.22 µM) | 4 µg/mL (≈ 10.4 µM) | 4 µg/mL (≈ 10.4 µM) | Minimum inhibitory concentration (S. aureus strain USA300; USA300): 4 µg/mL (≈ 10.4 µM)
CN(C)c1ccc(O)c2c1C[C@H]1C[C@H]3[C@H](N(C)C)C(O)=C(C(N)=O)C(=O)[C@@]3(O)C(O)=C1C2=O [MIN, minocycline] | 0.5 µg/mL (≈ 1.09 µM) | 0.5 µg/mL (≈ 1.09 µM) | 0.5 µg/mL (≈ 1.09 µM) | 0.5 µg/mL (≈ 1.09 µM) | 0.5 µg/mL (≈ 1.09 µM) | 0.5 µg/mL (≈ 1.09 µM) | 
C/C(=C\C(=O)OCCCCCCCCC(=O)O)C[C@@H]1OC[C@H](C[C@@H]2O[C@H]2[C@@H](C)[C@H](C)O)[C@@H](O)[C@H]1O [MUP, mupirocin] | 0.03 µg/mL (≈ 0.0599 µM) | 0.03 µg/mL (≈ 0.0599 µM) | 0.03 µg/mL (≈ 0.0599 µM) | 0.125 µg/mL (≈ 0.25 µM) | 0.125 µg/mL (≈ 0.25 µM) | 0.125 µg/mL (≈ 0.25 µM) | 
CCOc1ccc2ccccc2c1C(=O)N[C@@H]1C(=O)N2[C@@H]1SC(C)(C)[C@@H]2C(=O)O [NAF, nafcillin] | 0.25 µg/mL (≈ 0.603 µM) | 0.25 µg/mL (≈ 0.603 µM) | > 128 µg/mL | 4 µg/mL (≈ 9.65 µM) | 8 µg/mL (≈ 19.3 µM) | 8 µg/mL (≈ 19.3 µM) | Minimum inhibitory concentration (S. aureus strain USA300; USA300): 8 µg/mL (≈ 19.3 µM)
CC1(C)S[C@@H]2[C@H](NC(=O)Cc3ccccc3)C(=O)N2[C@H]1C(=O)O [Penicillin G, penicillin G] |  |  |  |  |  |  | Penicillin G MIC, no compound (—) (MRSA strain AH-1263): 16 µg/mL and 8 µg/mL
CCN1CCN(C(=O)N[C@@H](C(=O)N[C@@H]2C(=O)N3[C@@H]2SC(C)(C)[C@@H]3C(=O)O)c2ccccc2)C(=O)C1=O [Piperacillin, piperacillin] |  |  |  |  |  |  | MIC [1, 7]: 16 µg/mL; MIC (MRSA strain AH-1263; [7]): 16 µg/mL; MIC (MRSA strain AH-2204; [7]): 4 µg/mL
NC[C@H]1O[C@H](O[C@H]2[C@H](O)[C@@H](O[C@H]3O[C@H](CO)[C@@H](O)[C@H](N)[C@H]3O)[C@H](N)C[C@@H]2N)[C@H](N)C[C@@H]1O [TOB, tobramycin] | 0.06 µg/mL (≈ 0.128 µM) | 0.06 µg/mL (≈ 0.128 µM) | 0.06 µg/mL (≈ 0.128 µM) | 1 µg/mL (≈ 2.14 µM) | 1 µg/mL (≈ 2.14 µM) | 1 µg/mL (≈ 2.14 µM) | 
colistin |  |  |  |  |  |  | Minimum inhibitory concentration (S. aureus strain USA300; USA300): 128 µg/mL
